Each block holds one compound with its values, some of them ahead of it.
How the values were obtained:
[1] = test system: Alopecurus myosuroides (ALOMY); test: Pre-emergence biological efficacy, glasshouse, 1000 g/ha, evaluated after 13 days (100=total damage to plant; 0=no damage to plant); format: in vivo; conditions: Alopecurus myosuroides, 312 h, read-out: Percentage damage caused to weed species, pre-emergence, ALOMY; for pest or weed control at 1000 g/ha: rate 1,000 g/ha
Summary of the method: (§1)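 Seeds were sown in standard soil in pots, then grown in a controlled glasshouse at 24/16° C. day/night, 14 hours light and 65% humidity, with watering twice daily.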

[2] = test system: Amaranthus retroflexus (AMARE); test: as above; format: in vivo; conditions: Amaranthus retroflexus, 312 h, read-out: Percentage damage caused to weed species, pre-emergence, AMARE; for pest or weed control at 1000 g/ha: rate 1,000 g/ha
Summary of the method: as §1

[3] = test system: Echinochloa crus-galli (ECHCG); test: as above; format: in vivo; conditions: Echinochloa crus-galli, 312 h, read-out: Percentage damage caused to weed species, pre-emergence, ECHCG; for pest or weed control at 1000 g/ha: rate 1,000 g/ha
Summary of the method: as §1

[4] = test system: Ipomoea hederaceae (IPOHE); test: as above; format: in vivo; conditions: Ipomoea, 312 h, read-out: Percentage damage caused to weed species, pre-emergence, IPOHE; for pest or weed control at 1000 g/ha: rate 1,000 g/ha
Summary of the method: as §1

[5] = test system: Setaria faberi (SETFA); test: as above; format: in vivo; conditions: Setaria faberi, 312 h, read-out: Percentage damage caused to weed species, pre-emergence, SETFA; for pest or weed control at 1000 g/ha: rate 1,000 g/ha
Summary of the method: as §1

[6] = test system: Solanum nigrum (SOLNI); test: as above; format: in vivo; conditions: Solanum nigrum, 312 h, read-out: Percentage damage caused to weed species, pre-emergence, SOLNI; for pest or weed control at 1000 g/ha: rate 1,000 g/ha
Summary of the method: as §1

[7] = test system: Alopecurus myosuroides (ALOMY); test: Post-emergence biological efficacy, glasshouse, 500 or 1000 g/ha, evaluated after 13 days (100=total damage to plant; 0=no damage to plant); format: in vivo; conditions: Alopecurus myosuroides, 312 h, read-out: Percentage damage caused to weed species, post-emergence, ALOMY; for pest or weed control at 1000 g/ha: rate 1,000 g/ha
Summary of the method: (§2)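 Weed seeds were sown in standard soil in pots and the plants treated post-emergence. Afterwards they were grown on in a controlled glasshouse at 24/16° C. day/night with 14 hours light and 65% humidity, and watered twice daily.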

[8] = test system: Amaranthus retroflexus (AMARE); test: as above; format: in vivo; conditions: Amaranthus retroflexus, 312 h, read-out: Percentage damage caused to weed species, post-emergence, AMARE; for pest or weed control at 1000 g/ha: rate 1,000 g/ha
Summary of the method: as §2

[9] = test system: Echinochloa crusgaffi (ECHCG); test: as above; format: in vivo; conditions: Echinochloa, 312 h, read-out: Percentage damage caused to weed species, post-emergence, ECHCG; for pest or weed control at 1000 g/ha: rate 1,000 g/ha
Summary of the method: as §2

[10] = test system: Ipomoea hederaceae (IPOHE); test: as above; format: in vivo; conditions: Ipomoea, 312 h, read-out: Percentage damage caused to weed species, post-emergence, IPOHE; for pest or weed control at 1000 g/ha: rate 1,000 g/ha
Summary of the method: as §2

[11] = test system: Setaria faberi (SETFA); test: as above; format: in vivo; conditions: Setaria faberi, 312 h, read-out: Percentage damage caused to weed species, post-emergence, SETFA; for pest or weed control at 1000 g/ha: rate 1,000 g/ha
Summary of the method: as §2

[12] = test system: Solanum nigrum (SOLNI); test: as above; format: in vivo; conditions: Solanum nigrum, 312 h, read-out: Percentage damage caused to weed species, post-emergence, SOLNI; for pest or weed control at 1000 g/ha: rate 1,000 g/ha
Summary of the method: as §2

SMILES: COC(=O)c1nc(-c2ccc(Cl)c(OC)c2F)nc2c1N(Cc1ccccc1)CCN2Cc1ccccc1 [Compound 95-168, 2-(4-Chloro-2-fluoro-3-methoxyphenyl)-5,8-dibenzyl-4-methoxy-carbonyl-5,6,7,8-tetrahydropteridine]
pest or weed control at 1000 g/ha [1]: 0%
pest or weed control at 1000 g/ha [2]: 0%
pest or weed control at 1000 g/ha [3]: 0%
pest or weed control at 1000 g/ha [4]: 0%
pest or weed control at 1000 g/ha [5]: 0%
pest or weed control at 1000 g/ha [6]: 0%
pest or weed control at 1000 g/ha [7]: 0%
pest or weed control at 1000 g/ha [8]: 0%
pest or weed control at 1000 g/ha [9]: 0%
pest or weed control at 1000 g/ha [10]: 10%
pest or weed control at 1000 g/ha [11]: 0%
pest or weed control at 1000 g/ha [12]: 10%
melting point: 146 °C

SMILES: CCOCn1cc(C)c2c(C(=O)O)nc(-c3ccc(Cl)c(OC)c3F)nc21 [Compound 3-63, 4-carboxy-2-(4-chloro-2-fluoro-3-methoxyphenyl)-7-ethoxymethyl-5-methyl-7H-pyrrolo[2,3-d]pyrimidine]
pest or weed control at 1000 g/ha [1]: 0%
pest or weed control at 1000 g/ha [2]: 100%
pest or weed control at 1000 g/ha [3]: 0%
pest or weed control at 1000 g/ha [4]: 20%
pest or weed control at 1000 g/ha [5]: 0%
pest or weed control at 1000 g/ha [6]: 50%
pest or weed control at 1000 g/ha [7]: 0%
pest or weed control at 1000 g/ha [8]: 80%
pest or weed control at 1000 g/ha [9]: 10%
pest or weed control at 1000 g/ha [10]: 60%
pest or weed control at 1000 g/ha [11]: 10%
pest or weed control at 1000 g/ha [12]: 80%
melting point: 112 to 114 °C (dec.)

SMILES: COC(=O)c1nc(-c2ccc(Cl)c(F)c2)nc2c1n(Cc1ccccc1)c(=O)c(=O)n2Cc1ccccc1 [Compound 95-160, 2-(4-chloro-3-fluorophenyl)-5,8-dibenzyl-6,7-dioxo-4-methoxycarbonyl-5,6,7,8-tetrahydropteridine]
pest or weed control at 250 g/ha ([1]; rate 250 g/ha): 0%
pest or weed control at 250 g/ha ([2]; rate 250 g/ha): 0%
pest or weed control at 250 g/ha ([3]; rate 250 g/ha): 0%
pest or weed control at 250 g/ha ([4]; rate 250 g/ha): 0%
pest or weed control at 250 g/ha ([5]; rate 250 g/ha): 0%
pest or weed control at 250 g/ha ([6]; rate 250 g/ha): 0%
pest or weed control at 250 g/ha ([7]; rate 250 g/ha): 10%
pest or weed control at 250 g/ha ([8]; rate 250 g/ha): 20%
pest or weed control at 250 g/ha ([9]; rate 250 g/ha): 10%
pest or weed control at 250 g/ha ([10]; rate 250 g/ha): 20%
pest or weed control at 250 g/ha ([11]; rate 250 g/ha): 40%
pest or weed control at 250 g/ha ([12]; rate 250 g/ha): 30%
melting point: 211 °C

SMILES: COc1c(Cl)ccc(-c2cc3[nH]cc(C)c3c(C(=O)O)n2)c1F [Compound 22-63, 4-Carboxy-6-(4-chloro-2-fluoro-3-methoxyphenyl)-3-methyl-1H-pyrrolo[3,2-c]pyridine]
pest or weed control at 1000 g/ha [1]: 0%
pest or weed control at 1000 g/ha [2]: 20%
pest or weed control at 1000 g/ha [3]: 0%
pest or weed control at 1000 g/ha [4]: 70%
pest or weed control at 1000 g/ha [5]: 0%
pest or weed control at 1000 g/ha [6]: 60%
pest or weed control at 1000 g/ha [7]: 40%
pest or weed control at 1000 g/ha [8]: 70%
pest or weed control at 1000 g/ha [9]: 70%
pest or weed control at 1000 g/ha [10]: 70%
pest or weed control at 1000 g/ha [11]: 90%
pest or weed control at 1000 g/ha [12]: 80%

SMILES: COC(=O)c1nc(-c2ccc(Cl)c(OC)c2F)nc2c1NC(c1ccccc1)C(c1ccccc1)N2 (centres unmarked) [Compound 91-204, 2-(4-Chloro-2-fluoro-3-methoxyphenyl)-6,7-diphenyl-4-methoxycarbonyl-5,6,7,8-tetrahydropteridine]
pest or weed control at 1000 g/ha [1]: 0%
pest or weed control at 1000 g/ha [2]: 20%
pest or weed control at 1000 g/ha [3]: 0%
pest or weed control at 1000 g/ha [4]: 0%
pest or weed control at 1000 g/ha [5]: 0%
pest or weed control at 1000 g/ha [6]: 10%
pest or weed control at 1000 g/ha [7]: 0%
pest or weed control at 1000 g/ha [8]: 50%
pest or weed control at 1000 g/ha [9]: 0%
pest or weed control at 1000 g/ha [10]: 40%
pest or weed control at 1000 g/ha [11]: 0%
pest or weed control at 1000 g/ha [12]: 80%

More lines, main results first:

melting point: 160 to 162 °C
SMILES: COC(=O)c1nc(-c2ccc(Cl)c(OC)c2F)nc2ncccc12 [Compound 123-50, 2-(4-chloro-2-fluoro-3-methoxyphenyl)-4-methoxycarbonyl-pyrido[2,3-d]pyrimidine]
pest or weed control at 1000 g/ha [1]: 0%
pest or weed control at 1000 g/ha [2]: 0%
pest or weed control at 1000 g/ha [3]: 0%
pest or weed control at 1000 g/ha [4]: 0%
pest or weed control at 1000 g/ha [5]: 0%
pest or weed control at 1000 g/ha [6]: 0%
pest or weed control at 1000 g/ha [7]: 0%
pest or weed control at 1000 g/ha [8]: 0%
pest or weed control at 1000 g/ha [9]: 10%
pest or weed control at 1000 g/ha [10]: 10%
pest or weed control at 1000 g/ha [11]: 10%
pest or weed control at 1000 g/ha [12]: 20%

melting point: 97 °C
SMILES: COC(=O)c1nc(-c2ccc(Cl)c(OC)c2F)nc2c1N(C)CCN2C [Compound 92-164, 2-(4-chloro-2-fluoro-3-methoxyphenyl)-5,8-dimethyl-4-methoxycarbonyl-5,6,7,8-tetrahydropteridine]
pest or weed control at 1000 g/ha [1]: 0%
pest or weed control at 1000 g/ha [2]: 0%
pest or weed control at 1000 g/ha [3]: 0%
pest or weed control at 1000 g/ha [4]: 0%
pest or weed control at 1000 g/ha [5]: 0%
pest or weed control at 1000 g/ha [6]: 0%
pest or weed control at 1000 g/ha [7]: 0%
pest or weed control at 1000 g/ha [8]: 0%
pest or weed control at 1000 g/ha [9]: 0%
pest or weed control at 1000 g/ha [10]: 0%
pest or weed control at 1000 g/ha [11]: 0%
pest or weed control at 1000 g/ha [12]: 10%

melting point: 162 to 165 °C
SMILES: COC(=O)c1nc(C2CC2)nc2[nH]ccc12 [Compound 1-2, 2-Cyclopropyl-4-methoxycarbonyl-7H-pyrrolo[2,3-d]pyrimidine]
pest or weed control at 1000 g/ha [1]: 0%
pest or weed control at 1000 g/ha [2]: 30%
pest or weed control at 1000 g/ha [3]: 0%
pest or weed control at 1000 g/ha [4]: 20%
pest or weed control at 1000 g/ha [5]: 0%
pest or weed control at 1000 g/ha [6]: 50%
pest or weed control at 1000 g/ha [7]: 10%
pest or weed control at 1000 g/ha [8]: 90%
pest or weed control at 1000 g/ha [9]: 70%
pest or weed control at 1000 g/ha [10]: 100%
pest or weed control at 1000 g/ha [11]: 90%
pest or weed control at 1000 g/ha [12]: 90%

melting point: 135 °C
SMILES: COC(=O)c1nc(-c2ccc(Cl)c(OC)c2F)nc2c1N(C(C)C)CCN2C(C)C [Compound 93-166, 2-(4-Chloro-2-fluoro-3-methoxyphenyl)-5,8-diisopropyl-4-methoxy-carbonyl-5,6,7,8-tetrahydropteridine]
pest or weed control at 1000 g/ha [1]: 0%
pest or weed control at 1000 g/ha [2]: 0%
pest or weed control at 1000 g/ha [3]: 0%
pest or weed control at 1000 g/ha [4]: 0%
pest or weed control at 1000 g/ha [5]: 0%
pest or weed control at 1000 g/ha [6]: 0%
pest or weed control at 1000 g/ha [7]: 20%
pest or weed control at 1000 g/ha [8]: 0%
pest or weed control at 1000 g/ha [9]: 10%
pest or weed control at 1000 g/ha [10]: 10%
pest or weed control at 1000 g/ha [11]: 30%
pest or weed control at 1000 g/ha [12]: 10%

melting point: 107 to 108 °C
SMILES: CCOCn1cc(C)c2c(C(=O)OC)nc(-c3ccc(Cl)c(OC)c3F)nc21 [Compound 3-64, 2-(4-chloro-2-fluoro-3-methoxyphenyl)-7-ethoxymethyl-4-methoxycarbonyl-5-methyl-7H-pyrrolo[2,3-d]pyrimidine]
pest or weed control at 1000 g/ha [1]: 0%
pest or weed control at 1000 g/ha [2]: 0%
pest or weed control at 1000 g/ha [3]: 0%
pest or weed control at 1000 g/ha [4]: 0%
pest or weed control at 1000 g/ha [5]: 0%
pest or weed control at 1000 g/ha [6]: 0%
pest or weed control at 1000 g/ha [7]: 0%
pest or weed control at 1000 g/ha [8]: 10%
pest or weed control at 1000 g/ha [9]: 0%
pest or weed control at 1000 g/ha [10]: 70%
pest or weed control at 1000 g/ha [11]: 0%
pest or weed control at 1000 g/ha [12]: 40%

— patent publication US20120202690A1, “HERBICIDAL COMPOUNDS” (SYNGENTA LIMITED, priority 2009, published 2012)
